From patent US7947851B2, “1,1′-(1,2-ethynediyl)bis-benzene derivatives as PTP 1-B inhibitors” (Merck Serono SA, priority 2004, dated 2011)
Counter-ions that a name gives are not always drawn. Like-named read-outs stand apart in the source and are kept apart here.

Legend:
db/db mice = assay: In vivo assay in db/db mice (postprandial glycemia); conditions: 30 mg/kg per os, 4 hrs after drug administration, percentage of control (group 1: vehicle treated mice)
Experimental: The following assay aims at determining the anti-diabetic effect of the test compounds of formula (I) in a model of postprandial glycemia in db/db mice, in vivo.
The assay was performed as follows:
A total of 18 db/db mice (about 8-9 weeks; obtained from IFFACREDO, l'Arbreste, France) were fasted during 20 hours.
2 groups, each consisting of 6 animals were formed: • Group 1: The animals were administered (per os) a dose of 10 mL/kg of vehicle (control). • Group 2: The animals were administered (per os) a dose of 30 mg/kg of the test compound according to formula (I) solubilized in the vehicle.
After oral administration of the compounds of formula (I) solubilized or suspended in CarboxyMethylCellulose (0.5%), Tween 20 (0.25%) and water as vehicle, the animals had access to conmnercial food (D04, UAR, Villeinoisson/Orge, France) ad libitum. The diabetic state of the mice was verified by determining the blood glucose level before drug administration. Blood glucose and serum insulin levels were then determined 4 hrs after drug administration.
The determination of the blood glucose level was performed using a glucometer (Precision Q.I.D., Medisense, Abbot, ref. 212.62.31).
The determination of the Insulin level was performed using an ELISA kit (Crystal CHEM, Ref. INSK R020).
Changes in blood glucose and serum insulin of drug treated mice were expressed as a percentage of control (group 1: vehicle treated mice).

GLEPP-1 = molecular target: T1, GLEPP-1 (Homo sapiens, UniProt Q16827); assay: PTP Enzyme Assay (DiFMUP), GLEPP-1; assay type: biochemical
T1 construct: using the catalytic core of a human recombinant PTP as the enzyme; made in house
T1 sequence (Q16827 938-1195 limits assumed): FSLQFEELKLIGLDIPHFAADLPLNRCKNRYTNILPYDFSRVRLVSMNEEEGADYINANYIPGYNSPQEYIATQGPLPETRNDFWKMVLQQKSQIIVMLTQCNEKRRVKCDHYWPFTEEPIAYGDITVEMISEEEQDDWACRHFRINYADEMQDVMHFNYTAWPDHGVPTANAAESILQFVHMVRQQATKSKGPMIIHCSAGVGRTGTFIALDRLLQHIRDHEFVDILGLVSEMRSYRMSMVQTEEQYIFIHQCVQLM
Excerpt: The PTP Enzyme Assay aims at determining the extent of inhibition of PTP's, e.g. of PTP1B, SEP-1, SHP-2, GLEPP-1 or PTP-H1 in the presence of a test compound of lo formula (I).
(§1) The DiFMUP assay allows to follow the dephosphorylation of DiFMUP (6,8-DiFluoro-4-MethylUmbelliferyl Phosphate)—which is the PTP substrate—mediated by PTP into its stable hydrolysis product, i.e. DiFMU (6,8-difluoro-7-hydroxy coumarin). Due to its rather low pKa and its high quantum yield, DiFMU allows to measure both acidic and alkaline phosphatase activities with a great sensitivity.
(§2) Compounds to be tested were dissolved in 100% DMSO at a concentration of 2 mM. Subsequent dilutions of the test compounds (to yield a concentration of 100, 30, 10, 3, 1,0.3, 0.1, 0.03, 0.01, 0.001 μM) were performed in 60% DMSO manually. 8 μl of diluted compound or vehicle (60% DMSO=control) was distributed to a black Costar 96 well plate. 42 μl of human recombinant PTP enzyme diluted in assay buffer (20 mM Tris HCl pH 7.5, 0.01% IGEPAL CA-630, 0.1 mM ethylenediaminetetracetic acid, 1 mM DL-Dithiothreitol) can be added to the dilutions of compound or vehicule (distributed to a black Costar 96-well plate), followed by 50 μl of DiFMUP diluted in the assay buffer. The reaction ran for 30 minutes at room temperature before reading the fluorescence intensity (integral or intensity) on a Perkin-Elmer Victor 2 spectrofluorimeter (excitation of 6,8-difluoro-7-hydroxy coumarin is at 355 nm, the emission at 460 nm, for 0.1 s). The percentage of inhibition is determined by measuring the relative fluorescence ion absence of a test compound (PTP inhibitor), i.e. with the solvent alone (5% DMSO). The IC50 values for inhibition were determined in triplicates.

PTP-H1 = molecular target: T2, PTP-H1 (Homo sapiens, UniProt P26045); assay: PTP Enzyme Assay (DiFMUP), PTP-H1; assay type: biochemical; conditions: 5 μM DiFMUP, catalytic core of human recombinant PTP; read-out: IC50 value in respect of PTP-H1
T2 construct: using the catalytic core of a human recombinant PTP as the enzyme; made in house
T2 sequence (P26045 646-901 limits assumed): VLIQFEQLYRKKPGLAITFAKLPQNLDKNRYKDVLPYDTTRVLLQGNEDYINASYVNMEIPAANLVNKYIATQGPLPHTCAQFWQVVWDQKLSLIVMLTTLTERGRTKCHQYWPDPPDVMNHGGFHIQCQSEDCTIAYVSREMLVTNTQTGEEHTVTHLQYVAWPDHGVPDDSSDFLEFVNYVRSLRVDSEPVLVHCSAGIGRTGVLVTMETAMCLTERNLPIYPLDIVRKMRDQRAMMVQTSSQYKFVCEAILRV
Experimental: (§3) The PTP Enzyme Assay aims at determining the extent of inhibition of PTP's, e.g. of PTP1B, SEP-1, SHP-2, GLEPP-1 or PTP-H1 in the presence of a test compound of lo formula (I). The inhibition is illustrated by IC50 values which denote the concentration of test compound necessary to achieve an inhibition of 50% of said PTP's using the following concentration of the PTP substrate DiFMUP: • 5 μM DiFMUP for PTP1B and PTP-H1; • 20 μM DiFMUP for SHP-1 and SHP-2; • 30 μM DiFMUP for GLEPP-1. a) PTPs Cloning […]
(§4) Assays were performed in a 96 well plate format, using the catalytic core of a human recombinant PTP as the enzyme and 6,8-DiFluoro-4-MethylUmbelliferyl Phosphate (DiFMUP, Molecular Probes, D-6567) as a substrate. […] The reaction ran for 30 minutes at room temperature before reading the fluorescence intensity (integral or intensity) on a Perkin-Elmer Victor 2 spectrofluorimeter (excitation of 6,8-difluoro-7-hydroxy coumarin is at 355 nm, the emission at 460 nm, for 0.1 s). The percentage of inhibition is determined by measuring the relative fluorescence ion absence of a test compound (PTP inhibitor), i.e. with the solvent alone (5% DMSO). The IC50 values for inhibition were determined in triplicates.

PTP1B = molecular target: T3, PTP1B (Homo sapiens, UniProt P18031); assay: PTP Enzyme Assay (DiFMUP), PTP1B; assay type: biochemical; conditions: 5 μM DiFMUP, catalytic core of human recombinant PTP; read-out: IC50 value in respect of PTP1B
T3 construct: using the catalytic core of a human recombinant PTP as the enzyme; made in house
T3 sequence (P18031 3-277 limits assumed): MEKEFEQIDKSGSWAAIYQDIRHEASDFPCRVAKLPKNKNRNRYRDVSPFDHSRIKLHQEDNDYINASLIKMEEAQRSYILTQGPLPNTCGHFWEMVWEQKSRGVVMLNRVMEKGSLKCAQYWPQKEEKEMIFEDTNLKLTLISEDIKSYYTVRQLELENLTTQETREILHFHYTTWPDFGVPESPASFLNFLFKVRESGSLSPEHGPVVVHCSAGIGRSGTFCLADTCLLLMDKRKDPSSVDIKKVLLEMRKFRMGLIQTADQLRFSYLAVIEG
Experimental: The PTP Enzyme Assay aims at determining the extent of inhibition of PTP's, e.g. of PTP1B, SEP-1, SHP-2, GLEPP-1 or PTP-H1 in the presence of a test compound of lo formula (I). The inhibition is illustrated by IC50 values which denote the concentration of test compound necessary to achieve an inhibition of 50% of said PTP's using the following concentration of the PTP substrate DiFMUP: • 5 μM DiFMUP for PTP1B and PTP-H1; • 20 μM DiFMUP for SHP-1 and SHP-2; • 30 μM DiFMUP for GLEPP-1. a) PTPs Cloning
The cloning and expression of the catalytic domain e.g. of PTP1B, may be performed as described in J. Biol. Chem. 2000, 275(13), pp 9792-9796.
as §1
as §2, with “Assays were performed in a 96 well plate format, using the catalytic core of a human recombinant PTP as the enzyme and 6,8-DiFluoro-4-MethylUmbelliferyl Phosphate (DiFMUP, Molecular Probes, D-6567) as a substrate. Compounds” for “Compounds”, “42 μl of human recombinant PTP enzyme diluted in assay buffer (20 mM Tris HCl pH 7.5, 0.01% IGEPAL CA-630, 0.1 mM ethylenediaminetetracetic acid, 1 mM DL-Dithiothreitol) can be added to the dilutions of compound or vehicule (distributed to a black Costar 96-well plate), followed by 50 μl of DiFMUP diluted in the assay buffer.” left out

SHP-2 = molecular target: T4, SHP-2 (Homo sapiens, UniProt Q06124); assay: PTP Enzyme Assay (DiFMUP), SHP-2; assay type: biochemical; conditions: 20 μM DiFMUP, catalytic core of human recombinant PTP; read-out: IC50 value in respect of SHP-2
T4 construct: using the catalytic core of a human recombinant PTP as the enzyme; made in house
T4 sequence (Q06124 247-517 limits assumed): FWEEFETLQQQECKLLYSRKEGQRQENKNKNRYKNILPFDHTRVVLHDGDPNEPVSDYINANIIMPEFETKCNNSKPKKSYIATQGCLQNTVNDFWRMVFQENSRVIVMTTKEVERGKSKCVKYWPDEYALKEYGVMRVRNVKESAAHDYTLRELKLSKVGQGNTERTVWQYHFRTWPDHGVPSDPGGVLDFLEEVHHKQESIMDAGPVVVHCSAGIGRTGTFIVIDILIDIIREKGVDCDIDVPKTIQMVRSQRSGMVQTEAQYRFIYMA
Experimental: as §3, §4

SHP-1 = molecular target: T5, SHP-1 (Homo sapiens, UniProt P29350); assay: PTP Enzyme Assay (DiFMUP), SHP-1; assay type: biochemical; conditions: 20 μM DiFMUP, catalytic core of human recombinant PTP; read-out: IC50 value in respect of SHP-1
T5 construct: using the catalytic core of a human recombinant PTP as the enzyme; made in house
T5 sequence (P29350 244-515 limits assumed): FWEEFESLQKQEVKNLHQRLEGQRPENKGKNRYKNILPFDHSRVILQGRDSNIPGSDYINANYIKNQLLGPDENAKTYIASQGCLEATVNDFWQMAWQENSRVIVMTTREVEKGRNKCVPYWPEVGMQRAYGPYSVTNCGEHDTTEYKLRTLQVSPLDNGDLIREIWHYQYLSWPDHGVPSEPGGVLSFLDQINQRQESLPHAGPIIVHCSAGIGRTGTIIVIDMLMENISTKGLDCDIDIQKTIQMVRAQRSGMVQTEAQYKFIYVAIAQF
Experimental: as §3, §4

[1] = 30 μM DiFMUP, catalytic core of human recombinant PTP, read-out: IC50 value in respect of GLEPP-1

IC50 (GLEPP-1; [1]) | IC50 (PTP1B) | Compound | Decrease in blood glucose (db/db mice) | Decrease in serum insulin (db/db mice) | further results
 |  | 5-[(1-{4-[(4-butylphenyl)ethynyl]phenyl}pentyl)oxy]-2-hydroxybenzoic acid [Example 16] | 37% | 28% | 
620 nM | 510 nM | CCCCc1ccc(C#Cc2ccc(CN(Cc3ccc(OCC(=O)O)cc3)S(=O)(=O)/C=C/c3ccccc3)cc2)cc1 [Example 8, {4-[({4-[(4-butylphenyl)ethynyl]benzyl}{[(E)-2-phenylvinyl]sulfonyl}-amino)methyl]phenoxy}acetic acid] |  |  | IC50 (PTP-H1): 9640 nM; IC50 (SHP-2): 800 nM; IC50 (SHP-1): 820 nM
 |  | CCCCCCN(Cc1ccc(C#Cc2ccc(CCCC)cc2)cc1)C(=O)c1ccc(O)c(C(=O)O)c1 [Example 19, 5-[{{4-[(4-butylphenyl)ethynyl]benzyl}(hexyl)amino]carbonyl}-2-hydroxybenzoic acid, N-methyl-D-glucamine (i.e. 1-deoxy-1-(methylamino)-glucitol) salt] | 20% | 43% | 
210 nM | 80 nM | CCCCc1ccc(C#Cc2ccc(CN(CCC(C)(C)C)c3ccc(F)c(C(=O)O)c3)cc2)cc1 [Example 35, 5-[{4-[(4-butylphenyl)ethynylbenzyl}(3,3-dimethylbutyl)amino]-2-fluorobenzoic acid, N-methyl-D-glucamine (i.e. 1-deoxy-1-(methylamino)glucitol)salt] |  |  | 
 |  | CCCCCCN(C(=O)c1ccc(C#Cc2ccc(CCCC)cc2)cc1)c1ccc(F)c(C(=O)O)c1 [Example 55, 5-[{4-[(4-butylphenyl)ethynyl]benzoyl}(hexyl)amino]-2-fluorobenzoic acid, N-methyl-D-glucamine (i.e. 1-deoxy-1-(methylamino)glucitol)salt] | 46% | 75% | 

Compound | IC50 (GLEPP-1; [1]) | IC50 (PTP1B) | Decrease in blood glucose (db/db mice) | Decrease in serum insulin (db/db mice) | further results
CCCCCCN(Cc1ccc(C#Cc2ccccc2)cc1)c1ccc(F)c(C(=O)O)c1 [Example 30, 2-fluoro-5-{hexyl[4-(phenylethynyl)benzyl]amino}benzoic acid, N-methyl-D-glucamine (i.e. 1-deoxy-1-(methylamino)glucitol) salt] |  | 800 nM |  |  | IC50 (GLEPP-1): 860 nM
